Results as given in patent publication US12678425B2, “Methods for treating against viruses” (Howard University, priority 2019, dated 2026).

Experiments:
Human Annexin A2 = assay: LC-MS of Annexin A2 abundance after compound treatment; type: cell-based; set-up: Annexin A2 fragment abundance: reference not given here; conditions: for Abundance ratio 1: SD29-14 over DMSO (10 uM); for Abundance ratio 2: SD29-14 over DMSO (100 uM)
Protocol: To further confirm this mechanism of action, LC-MS (Liquid Chromatography-Mass Spectrometry) was conducted to determine the effect of RACK1 inhibition on ANXA2 expression.

HSV-1 = assay: Protection from HSV-1 cytopathic effect in HEp-2 cells (microscopy); type: cell-based; conditions: different concentrations, 24 h
Description: FIG. 15 depicts the results of in vitro testing to confirm the protective effect of a representative compound (SD-29-14) from the cytopathic effect caused by HSV-1. […] After washing away the virus with PBS, images were taken under a compound microscope.

[1] = tested on: RACK1A Y248 phosphorylation; assay: Immunoblot of ABA-induced RACK1A Y248 phosphorylation in seedlings; type: cell-based, Arabidopsis; conditions: 10 μM ABA, 12 hours
HSV-1 ICP0 protein = assay: Immunofluorescence and confocal microscopy of ICP0 in Hep-2 cells; type: cell-based; conditions: 10 μM, HSV-1 MOI 1.0, 30 h
Protocol: The HEp-2 cells were infected with HSV-1 at an MOI of 1.0 for 30 h along with the indicated compounds and control. The cells were fixed with 4% paraformaldehyde and stained with anti-ICPO-FITC in green and DAPI (blue for DNA label in the nucleus). The slides were observed under a Nikon confocal microscope (60× magnification lens) and pictures were taken to show infected cells (green) and total cells (DAPI). All scale bars correspond to 20 μm. The imaging experiments were performed three independent times, and the results as shown are representative of one of three experiments.
Hep-2 cells were grown to about 80% confluency in 12 well plate and the cells were co-infected with HSV-1 at an MOI of 1.0 for 30 h along with the indicated inhibitor compounds and control. The cells were fixed at room temperature with 4% paraformaldehyde-PBS for 15 minutes and then permeabilized at room temperature by 0.5% Triton X-100-PBS (pH 7.4) for 10 min. The cells were then washed 3× with Ice cold PBS. The cells were incubated with 1% BSA, 22.52 mg/mL glycine in PBST (PBS+0.1% Tween 20) for 30 min to block unspecific binding of the antibodies. The cells were incubated in the 1:500 diluted anti-ICP0 antibody in 1% BSA in PBST in a humidified chamber overnight at 4° C. […]

HEp-2 cells = assay: Trypan blue exclusion cell viability; type: cell-based; conditions: 24-hour treatment
Protocol: In order to assess whether the compounds are producing any toxicity that can led to the cell deaths, we evaluated the cell viability by the trypan blue exclusion method. As long-term inhibition of RACK1 expression has been reported to cell cycle arrest, we limited our experimental treatments to 24 h and evaluated the cell viability of almost full confluent cells after 24 h of compound treatment.
In table 2, the viability of cells was measured with Trypan blue exclusion assay in a Cellometer (Nexcelom, Lawrence, MA). The percentage survival of the compound treated cells was evaluated along with the DMSO treated cells. The values represent the mean f SE of three separate well based replicates.

[2] = tested on: Hep-2 cells infected with HSV-1; assay: Fluorescence cell sort in Cellometer, HSV-1 infected Hep-2 cells; type: cell-based, human; conditions: 24-h incubation, HSV-1 MOI 1.0
Protocol: FIG. 13 depicts the quantification of fluorescent cells by Image based cell sorting in a Cellometer (Nexcelom Vision), based on the experiments depicted in FIG. 12. […] The cells were prepared by immunostaining with ICP0 antibody after 24-h incubation with the indicated compounds. The total cell counts were 1.01×10^6/ml, 4.69×10^6/ml, and 5.36×10^6/ml for DMSO, SD29-14 (10 μM), and SD29-14 (100 μM) respectively. The numbers show the mean f SE of three replicates.
Fluorescence Cell Sort: Hep-2 cells were grown to about 80% confluency in T25 Cell culture flask and were co-infected with HSV-1 at a MOI of 1.0 for 24 h along with the indicated inhibitor compounds and control. After trypsinization, the cells were fixed in 4% paraformaldehyde-PBS. The cells were treated in the same method as described in the immunofluorescence and confocal microscopy method section. The labeled cells were counted in a Nexcelom Vision Cellometer equipped with Brightfield & 2 Fluorescence Channels Filter Set 101: Excitation/Emission Peak: 475 nm/535 nm and Filter Set 202: Excitation/Emission Peak: 525 nm/595 nm. […] Bright-field and fluorescent images were then captured and analyzed at four different locations by the Cellometer image analysis software to directly determine the cell concentration of fluorescently labelled cells. […]

HSV-1 strain 17 = assay: Plaque formation unit (pfu) assay in HEp-2 cells
Protocol: The viral plaque assay was performed as previously described (Tang et al. “Determination of minimum herpes simplex virus type 1 components necessary to localize transcriptionally active DNA to ND10,” J. Virol. 2003; 77:5821-28), with slight modifications. The HSV-1 strain 17 was diluted serially in a volume of 1 mL. Then 300 ul of the virus was added onto confluent HEp-2 cell monolayers in 12-well plates; each dilution had 3 wells. After adsorption for 2 h, the medium was removed and the cells were washed twice with serum-free DMEM and overlaid with phenol-free DMEM containing 5% FCS, 0.5% low-melting point agarose (GIBCO), and 1% penicillin-streptomycin. The cells were incubated at 370 C for 48 hours. Neutral red was added on the agarose to stain the live cells. The plaques were counted and reported as pfu per mL. Mean pfu was determined after averaging the number of pfu from different dilutions.

RACK1 protein expression = assay: Immunoblot of RACK1 expression under salt stress
Description: The abundant leaf protein Rubisco large subunit (RbcL) was used as a loading control for the blot.
As the antibody cross-reacts with all three RACK1 isoforms in Arabidopsis, we used the double knockout (rack1ab) as a negative control on the blot (triple mutant is lethal at the early seedling stage). The large subunit of the abundant leaf protein rubisco (RbcL) was used as loading control for this blot.

RACK1 = molecular target: T1, RACK1 (Homo sapiens, UniProt P63244); assay: Western blot of RACK1 in pre-treated, HSV-1 infected HEp-2 cells; type: cell-based; conditions: 100 μM, 24 hours pre-treatment, 24 h post infection
T1 construct: endogenous in cells; host or cells: HEp-2 cells (ATCC), infected with HSV-1
Protocol: (§1) Panel A of FIG. 8 depicts time and concentration dependent virus protein expression to deduce an optimum drug treatment regimen. […] Tubulin expression was used as the loading control for the blots.
(§2) Proteins were separated by SDS-PAGE (25 μg loaded in each lane), transferred to nitrocellulose membranes (Amersham Inc., Piscataway, NJ, USA), and blocked with 5% nonfat milk for 60 min at room temperature. Membranes were incubated overnight at 4° C. with primary antibody, followed by incubation with a horseradish peroxidase-coupled secondary antibody and detection with enhanced chemiluminescence (Pierce, Rockford, IL, USA), according to standard methods. Membranes were stripped with stripping buffer (100 mM 2-mercaptoethanol, 2% SDS, 62.5 mM Tris-HCl, pH 6.8), washed with PBS-0.1% Tween-20, and used to detect additional proteins. For Arabidopsis lysates one-week old seedlings were treated with 10 uM of ABA in the presence/absence of the inhibitor compounds for 12 hours in a growth chamber (overnight) at 22° C. mostly in the dark. Lysates were isolated in lysis buffer (Cell Signaling, Danvers, MA) supplemented with plant protease inhibitor (Sigma-Aldrich), phosphatase inhibitor cocktail A and B (Santa Cruz Biotechnology, Dallas, TX), and N-Ethylamaleimide (Sigma-Aldrich, St. Louis, MO). […]

[3] = tested on: HSV-1 proteins (ICP0, ICP8, gD); assay: Western blot of HSV-1 proteins in pre-treated HEp-2 cells; type: cell-based; conditions: 100 μM, 24 hours pre-treatment, 24 h post infection
Protocol: as §1, §2

Compound: Nn1c(S)nnc1-c1cc(Cl)cc(Cl)c1 [SD-29-14]
- abundance of human ANXA2 (Human Annexin A2; LC-MS, SD29-14 treatment): increased abundance
- Annexin A2 fragment abundance (Human Annexin A2; fragment DALNIETAIK, 10 uM): 317727.9
- Annexin A2 fragment abundance (Human Annexin A2; fragment DALNIETAIK, 100 uM): 130507.6
- Abundance ratio 1 (Human Annexin A2; fragment DALNIETAIK): 7.765
- Abundance ratio 2 (Human Annexin A2; fragment DALNIETAIK): 3.19
- Annexin A2 fragment abundance (Human Annexin A2; fragment GVDEVTIVNILTNR, 10 uM): 133381
- Annexin A2 fragment abundance (Human Annexin A2; fragment GVDEVTIVNILTNR, 100 uM): 9540
- Abundance ratio 1 (Human Annexin A2; fragment GVDEVTIVNILTNR): >100
- Abundance ratio 2 (Human Annexin A2; fragment GVDEVTIVNILTNR): >100
- Annexin A2 fragment abundance (Human Annexin A2; fragment TNQELQEINR, 10 uM): 462054
- Annexin A2 fragment abundance (Human Annexin A2; fragment TNQELQEINR, 100 uM): 190293
- Abundance ratio 1 (Human Annexin A2; fragment TNQELQEINR): 10.502
- Abundance ratio 2 (Human Annexin A2; fragment TNQELQEINR): 4.325
- cytopathic effect caused by HSV-1 (HSV-1): do not show the cytopathic effect
- ABA-induced RACK1A Y248 phosphorylation [1]: prevented the ABA-induced Y248 phosphorylation
- expression of ICP0 protein (immunofluorescence) (HSV-1 ICP0 protein): effectively eliminated any expression of ICP0 protein
- HEp-2 Cell viability, Mean (percentage survival) (HEp-2 cells; 10 μM): 97.5%
- HEp-2 Cell viability, Mean (percentage survival) (HEp-2 cells; 100 μM): 93.7%
- total cell counts ([2]; 10 μM): 4.69e+06 mL⁻¹
- total cell counts ([2]; 100 μM): 5.36e+06 mL⁻¹

Compound: COc1ccc(-c2nnc(SCC(=O)O)n2N)cc1 [SD-29-12]
- HEp-2 Cell viability, Mean (percentage survival) (HEp-2 cells; 10 μM): 92.7%
- HEp-2 Cell viability, Mean (percentage survival) (HEp-2 cells; 100 μM): 97.7%
- Plaque formation unit (pfu) (HSV-1 strain 17; 0 hpl): 0 ± 0 PFU/mL
- Plaque formation unit (pfu) (HSV-1 strain 17; 6 hpl): 3.8 ± 0.07 × 10^2 PFU/mL
- Plaque formation unit (pfu) (HSV-1 strain 17; 12 hpl): 3.6 ± 0.04 × 10^3 PFU/mL
- Plaque formation unit (pfu) (HSV-1 strain 17; 24 hpl): 2.6 ± 0.03 × 10^6 PFU/mL

Compound: Nn1c(S)nnc1-c1ccc(F)cc1 [SD-29]
- RACK1 protein expression under salt stress (RACK1 protein expression): inhibited RACK1 protein expression
- ABA-induced RACK1A Y248 phosphorylation [1]: prevented the ABA-induced Y248 phosphorylation
- production of RACK1 (RACK1): reduced the production of RACK1
- viral protein levels (ICP0, ICP8, gD) [3]: lower than that of DMSO- or SD-29-12-treated HEp-2 cells
- HEp-2 Cell viability, Mean (percentage survival) (HEp-2 cells; 10 μM): 94.0%
- HEp-2 Cell viability, Mean (percentage survival) (HEp-2 cells; 100 μM): 92.7%
- Plaque formation unit (pfu) (HSV-1 strain 17; 0 hpl): 0 ± 0 PFU/mL
- Plaque formation unit (pfu) (HSV-1 strain 17; 6 hpl): 0 ± 0 PFU/mL
